Results reported in PubChem BioAssay (NCI).
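1) Cells in 96-well plates. 2) Compound, 48 h, 5 concentrations. 3) Linear interpolation between surrounding doses. 4) Unreached endpoint = highest concentration. Here, GI50 denotes the concentration required for 50% inhibition of growth. TGI: concentration producing complete growth inhibition.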

How the values were obtained:
Test in all cases: DTP human tumour cell line panel, 48 h; in the data active means GI50 below about 0.43 µM; inactive means the rest
A549 NSCLC = test system: A549 NSCLC
T-47D breast = test system: T-47D breast
SNB-75 CNS = test system: SNB-75 CNS
K-562 leukemia = test system: K-562 leukemia
PC-3 prostate = test system: PC-3 prostate
EKVX NSCLC = test system: EKVX NSCLC
UACC-62 melanoma = test system: UACC-62 melanoma
SF-295 CNS = test system: SF-295 CNS
MDA-MB-435 = test system: MDA-MB-435
UO-31 renal = test system: UO-31 renal
SF-539 CNS = test system: SF-539 CNS
HT29 colon = test system: HT29 colon
HS 578T breast = test system: HS 578T breast
DU-145 prostate = test system: DU-145 prostate
SK-MEL-2 melanoma = test system: SK-MEL-2 melanoma
OVCAR-5 ovarian = test system: OVCAR-5 ovarian
SN12C renal = test system: SN12C renal
RXF 393 renal = test system: RXF 393 renal
CCRF-CEM leukemia = test system: CCRF-CEM leukemia
A498 renal = test system: A498 renal
NCI/ADR-RES ovarian = test system: NCI/ADR-RES ovarian
MOLT-4 leukemia = test system: MOLT-4 leukemia
CAKI-1 renal = test system: CAKI-1 renal
NCI-H23 lung = test system: NCI-H23 lung
SF-268 CNS = test system: SF-268 CNS
UACC-257 melanoma = test system: UACC-257 melanoma
IGROV1 ovarian = test system: IGROV1 ovarian
U251 CNS = test system: U251 CNS
SK-MEL-28 melanoma = test system: SK-MEL-28 melanoma
HL-60(TB) leukemia = test system: HL-60(TB) leukemia
MALME-3M melanoma = test system: MALME-3M melanoma
OVCAR-4 ovarian = test system: OVCAR-4 ovarian
NCI-H522 lung = test system: NCI-H522 lung
ACHN renal = test system: ACHN renal
RPMI-8226 leukemia = test system: RPMI-8226 leukemia
786-0 renal = test system: 786-0 renal
SNB-19 CNS = test system: SNB-19 CNS
HCT-116 colon = test system: HCT-116 colon
HCT-15 colon = test system: HCT-15 colon
NCI-H226 lung = test system: NCI-H226 lung
SK-OV-3 ovarian = test system: SK-OV-3 ovarian
SW-620 colon = test system: SW-620 colon
NCI-H460 lung = test system: NCI-H460 lung
SK-MEL-5 melanoma = test system: SK-MEL-5 melanoma
HOP-62 NSCLC = test system: HOP-62 NSCLC
BT-549 breast = test system: BT-549 breast
MDA-MB-231 breast = test system: MDA-MB-231 breast
HCC-2998 colon = test system: HCC-2998 colon
LOX IMVI melanoma = test system: LOX IMVI melanoma
COLO 205 colon = test system: COLO 205 colon
OVCAR-8 ovarian = test system: OVCAR-8 ovarian
SR leukemia = test system: SR leukemia
M14 melanoma = test system: M14 melanoma
TK-10 renal = test system: TK-10 renal
KM12 colon = test system: KM12 colon
MCF7 breast = test system: MCF7 breast
HOP-92 NSCLC = test system: HOP-92 NSCLC
OVCAR-3 ovarian = test system: OVCAR-3 ovarian

CCCC(=O)NC(c1ccc(N(CC)CC)cc1)c1cc(C)c2cccnc2c1O (stereo not drawn)
> 59200 nM: TGI (BT-549 breast)
4560 nM: TGI (SF-539 CNS)
5530 nM: TGI (SK-MEL-5 melanoma)
1800 nM: TGI (SNB-75 CNS)
5670 nM: TGI (UO-31 renal)
5040 nM: TGI (EKVX NSCLC)
32600 nM: TGI (SF-268 CNS)
> 24600 nM: TGI (UACC-257 melanoma)
> 26900 nM: TGI (RXF 393 renal)
4850 nM: TGI (HL-60(TB) leukemia)
> 38500 nM: TGI (786-0 renal)
> 54400 nM: TGI (SR leukemia)
4260 nM: TGI (NCI-H226 lung)
> 87300 nM: TGI (MALME-3M melanoma)
> 100000 nM: TGI (A549 NSCLC) | TGI (T-47D breast) | TGI (K-562 leukemia) | TGI (PC-3 prostate) | TGI (SF-295 CNS) | TGI (HT29 colon) | TGI (HS 578T breast) | TGI (DU-145 prostate) | TGI (OVCAR-5 ovarian) | TGI (SN12C renal) | TGI (CCRF-CEM leukemia) | TGI (A498 renal) | TGI (NCI/ADR-RES ovarian) | TGI (MOLT-4 leukemia) | TGI (NCI-H23 lung) | TGI (U251 CNS) | TGI (SK-MEL-28 melanoma) | TGI (OVCAR-4 ovarian) | TGI (RPMI-8226 leukemia) | TGI (SNB-19 CNS) | TGI (HCT-116 colon) | TGI (HCT-15 colon) | TGI (SK-OV-3 ovarian) | TGI (SW-620 colon) | TGI (HOP-62 NSCLC) | TGI (MDA-MB-231 breast) | TGI (HCC-2998 colon) | TGI (LOX IMVI melanoma) | TGI (COLO 205 colon) | TGI (OVCAR-8 ovarian) | TGI (TK-10 renal) | TGI (KM12 colon) | TGI (MCF7 breast) | TGI (HOP-92 NSCLC) | TGI (OVCAR-3 ovarian)
14600 nM: TGI (IGROV1 ovarian)
1390 nM: TGI (UACC-62 melanoma)
active: GI50 (SNB-75 CNS) 199 nM | GI50 (K-562 leukemia) 336 nM | GI50 (EKVX NSCLC) 313 nM | GI50 (UACC-62 melanoma) 347 nM | GI50 (SF-295 CNS) 352 nM | GI50 (MDA-MB-435) 409 nM | GI50 (UO-31 renal) 302 nM | GI50 (HS 578T breast) 358 nM | GI50 (SK-MEL-2 melanoma) 399 nM | GI50 (CCRF-CEM leukemia) 407 nM | GI50 (NCI/ADR-RES ovarian) 366 nM | GI50 (MOLT-4 leukemia) 397 nM | GI50 (CAKI-1 renal) 381 nM | GI50 (U251 CNS) 386 nM | GI50 (HL-60(TB) leukemia) 331 nM | GI50 (OVCAR-4 ovarian) 394 nM | GI50 (NCI-H522 lung) 319 nM | GI50 (ACHN renal) 422 nM | GI50 (HCT-116 colon) 381 nM | GI50 (HCT-15 colon) 323 nM | GI50 (NCI-H460 lung) 247 nM | GI50 (COLO 205 colon) 398 nM | GI50 (OVCAR-8 ovarian) 381 nM | GI50 (SR leukemia) 388 nM | GI50 (MCF7 breast) 303 nM | GI50 (HOP-92 NSCLC) 306 nM | GI50 (OVCAR-3 ovarian) 374 nM
> 24300 nM: TGI (ACHN renal)
> 48600 nM: TGI (MDA-MB-435)
> 42000 nM: TGI (SK-MEL-2 melanoma)
inactive: GI50 (A549 NSCLC) 737 nM | GI50 (T-47D breast) 675 nM | GI50 (PC-3 prostate) 477 nM | GI50 (SF-539 CNS) 462 nM | GI50 (HT29 colon) 492 nM | GI50 (DU-145 prostate) 710 nM | GI50 (OVCAR-5 ovarian) 791 nM | GI50 (SN12C renal) 828 nM | GI50 (RXF 393 renal) 1450 nM | GI50 (A498 renal) > 100000 nM | GI50 (NCI-H23 lung) 462 nM | GI50 (SF-268 CNS) 438 nM | GI50 (UACC-257 melanoma) 834 nM | GI50 (IGROV1 ovarian) 439 nM | GI50 (SK-MEL-28 melanoma) 561 nM | GI50 (MALME-3M melanoma) 1450 nM | GI50 (RPMI-8226 leukemia) 520 nM | GI50 (786-0 renal) 763 nM | GI50 (SNB-19 CNS) 464 nM | GI50 (NCI-H226 lung) 513 nM | GI50 (SK-OV-3 ovarian) 635 nM | GI50 (SW-620 colon) 522 nM | GI50 (SK-MEL-5 melanoma) 639 nM | GI50 (HOP-62 NSCLC) 511 nM | GI50 (BT-549 breast) 1040 nM | GI50 (MDA-MB-231 breast) 539 nM | GI50 (HCC-2998 colon) 570 nM | GI50 (LOX IMVI melanoma) 496 nM | GI50 (M14 melanoma) 462 nM | GI50 (TK-10 renal) 489 nM | GI50 (KM12 colon) 454 nM
5120 nM: TGI (M14 melanoma)
